We go through twelve molecules from patent US10178875B2, “Methods of modifying or imparting taste using organic compounds” (Givaudan, S.A., priority 2013, dated 2019).

Structures are written as SMILES.

Assay type in all cases: in vivo
One experiment relates to panel of trained tasters. Kind of experiment: Taste evaluation in water. The protocol: A one percent cut of each compound of Examples 1-13 was prepared first. The hydrochloride salts were cut directly into water, while the free base examples were cut into ethanol. Next, 100 ml of a 1 ppm, 10 ppm and 20 ppm solution were prepared. The 1 ppm standards were prepared by addition of 0.0126 ml (cut in ethanol) or 0.01 ml (cut in water) to an amber bottle followed by dilution to 100 g total sample weight using water. The 10 and 20 ppm solutions were prepared similarly, but using 0.126 ml ethanol/0.1 ml water or 0.252 ml ethanol/0.2 ml water of the 1% cuts respectively. Next, the samples were evaluated by a panel of trained tasters.

In experiment [1] the test system is bench-top tasting panel. Kind of experiment: Umami evaluation in retorted chicken broth (Example 20). As to conditions: Example 3 4 ppm, Example 13 3 ppm, Example 10 4 ppm, Example 9 3 ppm; for umami strength ranking: MSG 0.20%, 9 panelists. The protocol: (§1) Umami evaluations were done in dry noodle seasoning, chicken broth, retorted chicken broth, cheese sauce and salted potato chip applications. Each application was prepared using MSG, the experimental umami tastant and a blank which contained neither MSG nor the experimental umami tastant. Next, using a bench-top tasting panel (consisting of 7 to 14 panelists), panelists were asked to record the sensory attribute differences between the control (blank), the MSG application and the application containing the experimental umami tastant. These sensory attributes include umami, saltiness, bitterness, off-notes, mouth feel attribute, lingering attribute and flavor profile differences.
The procedure for the preparation of the retorted chicken broth is the same as in example 16. Compounds from Examples 3, 9, 10 and 13 were spiked individually into the chicken broth generating six samples, as described below.

The test system of experiment [2] is bench-top tasting panel. Kind of experiment: Bain marie (hot water bath) test with chicken broth. As to conditions: hot water bath 150° F. for 4 hours, Example 3 3 ppm, Example 13 2 ppm (table), Example 10 3 ppm, Example 9 2 ppm; for umami strength ranking: MSG 0.20%, 7 panelists. The protocol:
as §1
Chicken broth was prepared as previously described in example 15. Compounds from Examples 3, 9, 10 and 13 were added to the chicken broth in the concentrations described below and placed in a hot water bath (150° F.) for 4 hours prior to taste evaluation.

Experiment [3] relates to bench-top tasting panel. Briefly: Umami evaluation on salted potato chips (Example 22). As to conditions: 1% salted potato chips, Example 3 10 ppm, Example 13 10 ppm, Example 10 6 ppm, Example 9 10 ppm; for umami strength ranking: MSG 0.2%, 9 panelists. The protocol: as §1
The potato chips were prepared as previously described in example 19 and spiked with compounds from Examples 3, 9, 10 and 13 as described below.

As for `COC(=O)c1ccc(SCCc2ccccn2)cc1.Cl` [Example 3, METHYL 4-((2-(PYRIDIN-2-YL)ETHYL)THIO)BENZOATE HYDROCHLORIDE], the taste entry in the experiment with panel of trained tasters (1 ppm in water) was “weak to moderate umami, very weak: bitter,”; in the experiment with panel of trained tasters (10 ppm in water) it was “moderate umami, weak: bitter, metallic,”; in the experiment with panel of trained tasters (20 ppm in water), “moderate to strong umami, weak: bitter,”. In addition, the aroma result in the experiment with panel of trained tasters (10 ppm in water) and in the experiment on panel of trained tasters (20 ppm in water) was “bloody metallic” throughout. Also, the “flavor profile described by panelists” value in the experiment with bench-top tasting panel [1] is on record as “a sweeter flavor profile with a build up of umami character”; in the experiment on bench-top tasting panel [2] it was “a bitter, limited umami flavor profile”; in the experiment with bench-top tasting panel [3], “a slight to moderate level of umami along with strong salty profile”. Also, the figures for the umami strength ranking entry in the experiment with bench-top tasting panel [1], with bench-top tasting panel [2] and in the experiment on bench-top tasting panel [3] were “MSG>3 ppm example 9>3 ppm Example 13>4 ppm Example 3>Blank retorted chicken broth>4 ppm Example 10”, “MSG>2 ppm example 9>3 ppm Example 10=4 ppm Example 13>Blank chicken broth>3 ppm Example 3” and 10 ppm Example 3>10 ppm Example 9>MSG>10 ppm Example 13>blank>6 ppm Example 10, respectively.
As to `Oc1cccc(SCCc2ccccn2)c1` [Example 10, 3-((2-(PYRIDIN-2-YL)ETHYL)THIO)PHENOL], the aroma result is “green” in the experiment with panel of trained tasters (1 ppm in water) and “vegetable” in the experiment on panel of trained tasters (20 ppm in water). Also, the taste result with panel of trained tasters (1 ppm in water) is “very weak bitter”; in the experiment on panel of trained tasters (10 ppm in water) it was “weak: umami, metallic, very weak: bitter,”. In addition, the “flavor profile described by panelists” value in the experiment on bench-top tasting panel [1] was “a green pepper aroma and was slightly bitter”; in the experiment on bench-top tasting panel [2] it was “mid/late umami along with a slight bitterness and off notes”; with bench-top tasting panel [3], “a nice salty, slight umami profile along with a slight offnote”. In addition, the umami strength ranking result with bench-top tasting panel [1] is on record as “MSG>3 ppm example 9>3 ppm Example 13>4 ppm Example 3>Blank retorted chicken broth>4 ppm Example 10”; in the experiment on bench-top tasting panel [2], “MSG>2 ppm example 9>3 ppm Example 10=4 ppm Example 13>Blank chicken broth>3 ppm Example 3”; with bench-top tasting panel [3] it was 10 ppm Example 3>10 ppm Example 9>MSG>10 ppm Example 13>blank>6 ppm Example 10.
Regarding `Cc1cccc(SCCc2ccccn2)c1.Cl` [Example 12, 2-(2-(M-TOLYLTHIO)ETHYL)PYRIDINE HYDROCHLORIDE], the taste result in the experiment with panel of trained tasters (1 ppm in water) was “weak: umami, astringent, very weak salty”; with panel of trained tasters (10 ppm in water) it was “moderate umami, weak: salty, astringent”; in the experiment with panel of trained tasters (20 ppm in water), “moderate to strong umami, weak: salty,”.
For the molecule `COc1cccc(SCCc2ccccn2)c1` [Example 8, 2-(2-((3-METHOXYPHENYL)THIO)ETHYL)PYRIDINE], the aroma entry in the experiment with panel of trained tasters (1 ppm in water) was “Green pepper, beany”; in the experiment on panel of trained tasters (10 ppm in water), “Green pepper”; in the experiment with panel of trained tasters (20 ppm in water), “Green pepper”. Besides, the taste entry was “very weak metallic, weak astringent” in the experiment on panel of trained tasters (1 ppm in water); “weak: umami, astringent, very weak: bitter,” with panel of trained tasters (10 ppm in water); “weak: umami, very weak: bitter, metallic” with panel of trained tasters (20 ppm in water).
In the case of `c1ccc(CSCCc2ccccn2)cc1` [Example 11, 2-(2-(BENZYLTHIO)ETHYL)PYRIDINE], the aroma entry with panel of trained tasters (1 ppm in water) is listed as “phenolic”; in the experiment on panel of trained tasters (10 ppm in water), “Phenolic, spicy”; in the experiment with panel of trained tasters (20 ppm in water), “Phenolic, spicy”. The taste entry with panel of trained tasters (1 ppm in water) is given as “weak umami, very weak astringent”; with panel of trained tasters (10 ppm in water), “weak umami, very weak astringent”; with panel of trained tasters (20 ppm in water), “moderate to strong umami, very weak bitter,”.
Turning to `Oc1ccc(SCCc2ccccn2)cc1` [Example 6, 4-((2-(PYRIDIN-2-YL)ETHYL)THIO)PHENOL], the aroma result is given as “green” in the experiment on panel of trained tasters (1 ppm in water); “Green, fruity” in the experiment on panel of trained tasters (10 ppm in water); “Green, fruity” in the experiment on panel of trained tasters (20 ppm in water). The taste entry was “very weak: umami, astringent” in the experiment with panel of trained tasters (1 ppm in water); “weak: umami, bitter, astringent, very weak” with panel of trained tasters (10 ppm in water); “weak: umami, bitter, astringent, very weak” in the experiment on panel of trained tasters (20 ppm in water).
As for `Cc1ccccc1SCCc1ccccn1.Cl` [Example 5, 2-(2-(O-TOLYLTHIO)ETHYL)PYRIDINE HYDROCHLORIDE], the aroma result in the experiment with panel of trained tasters (1 ppm in water), in the experiment with panel of trained tasters (10 ppm in water) and in the experiment with panel of trained tasters (20 ppm in water) was “green pepper” throughout. Moreover, the taste entry in the experiment with panel of trained tasters (1 ppm in water) is “weak bitter, astringent, very weak metallic”; in the experiment with panel of trained tasters (10 ppm in water) it was “weak umami, very weak bitter”; in the experiment on panel of trained tasters (20 ppm in water) it was “weak umami, very weak: bitter, astringent”.
Take `Oc1ccccc1SCCc1ccccn1` [Example 7, 2-((2-(PYRIDIN-2-YL)ETHYL)THIO)PHENOL]: the aroma entry in the experiment with panel of trained tasters (1 ppm in water), with panel of trained tasters (10 ppm in water) and with panel of trained tasters (20 ppm in water) was “Green pepper” in each case. Further, the taste entry with panel of trained tasters (1 ppm in water) was “very weak: umami, salty, weak bitter”; with panel of trained tasters (10 ppm in water), “weak to moderate umami, weak: bitter, metallic,”; in the experiment on panel of trained tasters (20 ppm in water), “Weak to moderate umami, weak bitter, very”.
Consider `COc1ccc(SCCc2ccccn2)cc1.Cl` [Example 13, 2-(2-((4-METHOXYPHENYL)THIO)ETHYL)PYRIDINE HYDROCHLORIDE], for which the taste result was “Weak umami, very weak bitter, astringent” in the experiment on panel of trained tasters (1 ppm in water); “Moderate to strong umami, very weak: bitter,” in the experiment with panel of trained tasters (10 ppm in water); “Strong umami, very weak bitter” in the experiment with panel of trained tasters (20 ppm in water). The aroma result with panel of trained tasters (20 ppm in water) is “pyrazine”. Besides, the “flavor profile described by panelists” value is “a slightly sweet/slightly bitter profile” in the experiment on bench-top tasting panel [1]; “mid/late umami with some late onset bitterness” with bench-top tasting panel [2]; “A good, salty, umami profile” in the experiment on bench-top tasting panel [3]. The umami strength ranking entry in the experiment on bench-top tasting panel [1] is listed as “MSG>3 ppm example 9>3 ppm Example 13>4 ppm Example 3>Blank retorted chicken broth>4 ppm Example 10”; in the experiment with bench-top tasting panel [2], “MSG>2 ppm example 9>3 ppm Example 10=4 ppm Example 13>Blank chicken broth>3 ppm Example 3”; in the experiment with bench-top tasting panel [3], 10 ppm Example 3>10 ppm Example 9>MSG>10 ppm Example 13>blank>6 ppm Example 10.
In the case of `Cl.c1ccc(SCCc2ccccn2)cc1` [Example 2, 2-(2-(PHENYLTHIO)ETHYL)PYRIDINE HYDROCHLORIDE], the aroma entry in the experiment on panel of trained tasters (1 ppm in water), in the experiment on panel of trained tasters (10 ppm in water) and in the experiment on panel of trained tasters (20 ppm in water) was “green” each time. In addition, the taste entry is “weak umami, very weak astringent” with panel of trained tasters (1 ppm in water); “moderate umami, very weak: salty, bitter,” with panel of trained tasters (10 ppm in water); “moderate umami, weak: salty, bitter, astringent” in the experiment on panel of trained tasters (20 ppm in water).
For the molecule `COC(=O)c1ccccc1SCCc1ccccn1.Cl` [Example 9, METHYL 2-((2-(PYRIDIN-2-YL)ETHYL)THIO)BENZOATE HYDROCHLORIDE], the taste result in the experiment on panel of trained tasters (1 ppm in water) is reported as “weak: umami, astringent, very weak: salty,”; with panel of trained tasters (10 ppm in water) it was “moderate umami,, weak: salty, astringent, very”; in the experiment on panel of trained tasters (20 ppm in water), “moderate umami, weak: salty, astringent,”. The “flavor profile described by panelists” value in the experiment with bench-top tasting panel [1] is reported as “a sweet, full umami profile”; in the experiment with bench-top tasting panel [2], “a boost in saltiness along with a strong, full umami taste profile”; in the experiment with bench-top tasting panel [3], “better mouthfeel, slight to moderate umami with an overall clean profile”. The results for the umami strength ranking result in the experiment on bench-top tasting panel [1], in the experiment with bench-top tasting panel [2] and in the experiment with bench-top tasting panel [3] were “MSG>3 ppm example 9>3 ppm Example 13>4 ppm Example 3>Blank retorted chicken broth>4 ppm Example 10”, “MSG>2 ppm example 9>3 ppm Example 10=4 ppm Example 13>Blank chicken broth>3 ppm Example 3” and 10 ppm Example 3>10 ppm Example 9>MSG>10 ppm Example 13>blank>6 ppm Example 10, respectively.
For `Cc1ccc(SCCc2ccccn2)cc1.Cl` [Example 4, 2-(2-(P-TOLYLTHIO)ETHYL)PYRIDINE HYDROCHLORIDE], the taste result in the experiment with panel of trained tasters (1 ppm in water) is on record as “very weak: umami, bitter, astringent”; in the experiment with panel of trained tasters (10 ppm in water), “weak: umami, bitter, astringent, very weak”; in the experiment with panel of trained tasters (20 ppm in water), “Weak: umami, bitter, metallic, sour, astringent”. In addition, the aroma result in the experiment with panel of trained tasters (10 ppm in water) and in the experiment on panel of trained tasters (20 ppm in water) was “green” throughout.
